Consider 14 compounds from ChEMBL document CHEMBL5291721, “A preclinical secondary pharmacology resource illuminates target-adverse drug reaction associations of marketed drugs” (Nat Commun, 2023).

Assay [1] addresses T1, Muscarinic acetylcholine receptor M1 (Homo sapiens, UniProt P11229).
T1 sequence (P11229 whole entry): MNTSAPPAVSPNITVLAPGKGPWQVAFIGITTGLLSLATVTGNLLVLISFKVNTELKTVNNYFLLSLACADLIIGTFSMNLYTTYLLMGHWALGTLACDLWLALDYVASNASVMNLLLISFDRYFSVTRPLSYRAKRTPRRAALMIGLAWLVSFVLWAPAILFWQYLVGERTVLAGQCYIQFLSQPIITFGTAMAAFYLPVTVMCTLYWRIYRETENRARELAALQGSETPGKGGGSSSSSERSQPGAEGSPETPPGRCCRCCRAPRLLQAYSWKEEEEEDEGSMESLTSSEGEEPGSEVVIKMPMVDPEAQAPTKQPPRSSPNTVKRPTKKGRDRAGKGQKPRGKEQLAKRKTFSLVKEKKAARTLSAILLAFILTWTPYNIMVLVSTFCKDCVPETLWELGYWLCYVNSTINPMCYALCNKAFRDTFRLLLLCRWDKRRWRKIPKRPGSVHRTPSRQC
It counts as functional.

Assay [2] addresses Sodium-dependent serotonin transporter (Homo sapiens, UniProt P31645).
For assay [3], the target named is T2, Alpha-2B adrenergic receptor (Homo sapiens, UniProt P18089).
T2 sequence (P18089 whole entry): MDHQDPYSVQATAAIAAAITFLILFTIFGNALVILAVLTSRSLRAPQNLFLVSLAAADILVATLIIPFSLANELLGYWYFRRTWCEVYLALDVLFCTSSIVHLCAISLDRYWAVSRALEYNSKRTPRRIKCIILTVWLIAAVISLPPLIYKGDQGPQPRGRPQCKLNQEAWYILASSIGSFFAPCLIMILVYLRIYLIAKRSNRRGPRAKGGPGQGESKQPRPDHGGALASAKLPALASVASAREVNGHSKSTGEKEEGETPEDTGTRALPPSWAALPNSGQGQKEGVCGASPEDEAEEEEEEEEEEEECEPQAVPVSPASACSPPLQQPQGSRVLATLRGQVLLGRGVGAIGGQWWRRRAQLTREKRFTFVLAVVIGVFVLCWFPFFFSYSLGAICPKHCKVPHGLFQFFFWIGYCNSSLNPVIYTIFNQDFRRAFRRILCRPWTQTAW

The next assay deals with D(3) dopamine receptor (Homo sapiens, UniProt P35462).
Sequence of D(3) dopamine receptor (P35462 whole entry): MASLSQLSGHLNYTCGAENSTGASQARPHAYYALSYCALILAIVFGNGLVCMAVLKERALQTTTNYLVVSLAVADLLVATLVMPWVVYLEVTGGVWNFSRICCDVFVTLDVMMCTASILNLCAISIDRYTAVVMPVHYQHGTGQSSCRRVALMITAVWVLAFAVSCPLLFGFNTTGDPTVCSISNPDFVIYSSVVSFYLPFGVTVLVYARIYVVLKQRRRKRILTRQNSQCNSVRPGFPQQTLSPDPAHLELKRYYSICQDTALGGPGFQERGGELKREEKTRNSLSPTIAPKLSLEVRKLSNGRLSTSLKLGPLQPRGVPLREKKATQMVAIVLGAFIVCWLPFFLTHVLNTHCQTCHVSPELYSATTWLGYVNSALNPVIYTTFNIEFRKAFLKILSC
The next assay concerns the target T3, Endothelin-1 receptor (Homo sapiens, UniProt P25101).
T3 sequence (P25101 whole entry): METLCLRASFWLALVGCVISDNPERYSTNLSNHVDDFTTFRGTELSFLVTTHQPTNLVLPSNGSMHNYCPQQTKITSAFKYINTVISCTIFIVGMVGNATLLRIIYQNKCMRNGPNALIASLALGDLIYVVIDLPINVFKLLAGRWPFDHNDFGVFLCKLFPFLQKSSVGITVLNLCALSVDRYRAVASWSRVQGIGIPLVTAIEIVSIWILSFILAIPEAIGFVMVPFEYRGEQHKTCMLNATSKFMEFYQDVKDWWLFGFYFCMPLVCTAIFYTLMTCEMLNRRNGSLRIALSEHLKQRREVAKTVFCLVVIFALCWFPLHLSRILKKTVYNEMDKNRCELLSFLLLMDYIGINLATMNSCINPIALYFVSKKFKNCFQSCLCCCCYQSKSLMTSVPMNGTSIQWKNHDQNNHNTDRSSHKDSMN

For a further assay, the target named is Histamine H1 receptor (Homo sapiens, UniProt P35367).
Sequence of Histamine H1 receptor (P35367 whole entry): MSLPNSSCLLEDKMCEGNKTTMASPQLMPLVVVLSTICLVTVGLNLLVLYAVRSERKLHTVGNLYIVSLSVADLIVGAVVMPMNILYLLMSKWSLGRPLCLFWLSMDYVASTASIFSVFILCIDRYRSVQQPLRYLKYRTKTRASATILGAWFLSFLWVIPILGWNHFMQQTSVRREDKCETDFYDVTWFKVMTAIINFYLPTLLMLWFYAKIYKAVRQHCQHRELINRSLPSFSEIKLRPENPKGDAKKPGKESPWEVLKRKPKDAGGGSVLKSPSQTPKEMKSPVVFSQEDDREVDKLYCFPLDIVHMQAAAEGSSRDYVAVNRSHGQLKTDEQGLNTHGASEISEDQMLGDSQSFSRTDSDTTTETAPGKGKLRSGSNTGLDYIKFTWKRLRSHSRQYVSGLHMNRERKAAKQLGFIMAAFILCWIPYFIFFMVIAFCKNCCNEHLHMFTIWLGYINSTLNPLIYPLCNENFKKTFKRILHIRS
Assay [4] deals with Voltage-dependent L-type calcium channel subunit alpha-1C (Rattus norvegicus, UniProt P22002). It counts as functional.
Sequence of Voltage-dependent L-type calcium channel subunit alpha-1C (P22002 whole entry): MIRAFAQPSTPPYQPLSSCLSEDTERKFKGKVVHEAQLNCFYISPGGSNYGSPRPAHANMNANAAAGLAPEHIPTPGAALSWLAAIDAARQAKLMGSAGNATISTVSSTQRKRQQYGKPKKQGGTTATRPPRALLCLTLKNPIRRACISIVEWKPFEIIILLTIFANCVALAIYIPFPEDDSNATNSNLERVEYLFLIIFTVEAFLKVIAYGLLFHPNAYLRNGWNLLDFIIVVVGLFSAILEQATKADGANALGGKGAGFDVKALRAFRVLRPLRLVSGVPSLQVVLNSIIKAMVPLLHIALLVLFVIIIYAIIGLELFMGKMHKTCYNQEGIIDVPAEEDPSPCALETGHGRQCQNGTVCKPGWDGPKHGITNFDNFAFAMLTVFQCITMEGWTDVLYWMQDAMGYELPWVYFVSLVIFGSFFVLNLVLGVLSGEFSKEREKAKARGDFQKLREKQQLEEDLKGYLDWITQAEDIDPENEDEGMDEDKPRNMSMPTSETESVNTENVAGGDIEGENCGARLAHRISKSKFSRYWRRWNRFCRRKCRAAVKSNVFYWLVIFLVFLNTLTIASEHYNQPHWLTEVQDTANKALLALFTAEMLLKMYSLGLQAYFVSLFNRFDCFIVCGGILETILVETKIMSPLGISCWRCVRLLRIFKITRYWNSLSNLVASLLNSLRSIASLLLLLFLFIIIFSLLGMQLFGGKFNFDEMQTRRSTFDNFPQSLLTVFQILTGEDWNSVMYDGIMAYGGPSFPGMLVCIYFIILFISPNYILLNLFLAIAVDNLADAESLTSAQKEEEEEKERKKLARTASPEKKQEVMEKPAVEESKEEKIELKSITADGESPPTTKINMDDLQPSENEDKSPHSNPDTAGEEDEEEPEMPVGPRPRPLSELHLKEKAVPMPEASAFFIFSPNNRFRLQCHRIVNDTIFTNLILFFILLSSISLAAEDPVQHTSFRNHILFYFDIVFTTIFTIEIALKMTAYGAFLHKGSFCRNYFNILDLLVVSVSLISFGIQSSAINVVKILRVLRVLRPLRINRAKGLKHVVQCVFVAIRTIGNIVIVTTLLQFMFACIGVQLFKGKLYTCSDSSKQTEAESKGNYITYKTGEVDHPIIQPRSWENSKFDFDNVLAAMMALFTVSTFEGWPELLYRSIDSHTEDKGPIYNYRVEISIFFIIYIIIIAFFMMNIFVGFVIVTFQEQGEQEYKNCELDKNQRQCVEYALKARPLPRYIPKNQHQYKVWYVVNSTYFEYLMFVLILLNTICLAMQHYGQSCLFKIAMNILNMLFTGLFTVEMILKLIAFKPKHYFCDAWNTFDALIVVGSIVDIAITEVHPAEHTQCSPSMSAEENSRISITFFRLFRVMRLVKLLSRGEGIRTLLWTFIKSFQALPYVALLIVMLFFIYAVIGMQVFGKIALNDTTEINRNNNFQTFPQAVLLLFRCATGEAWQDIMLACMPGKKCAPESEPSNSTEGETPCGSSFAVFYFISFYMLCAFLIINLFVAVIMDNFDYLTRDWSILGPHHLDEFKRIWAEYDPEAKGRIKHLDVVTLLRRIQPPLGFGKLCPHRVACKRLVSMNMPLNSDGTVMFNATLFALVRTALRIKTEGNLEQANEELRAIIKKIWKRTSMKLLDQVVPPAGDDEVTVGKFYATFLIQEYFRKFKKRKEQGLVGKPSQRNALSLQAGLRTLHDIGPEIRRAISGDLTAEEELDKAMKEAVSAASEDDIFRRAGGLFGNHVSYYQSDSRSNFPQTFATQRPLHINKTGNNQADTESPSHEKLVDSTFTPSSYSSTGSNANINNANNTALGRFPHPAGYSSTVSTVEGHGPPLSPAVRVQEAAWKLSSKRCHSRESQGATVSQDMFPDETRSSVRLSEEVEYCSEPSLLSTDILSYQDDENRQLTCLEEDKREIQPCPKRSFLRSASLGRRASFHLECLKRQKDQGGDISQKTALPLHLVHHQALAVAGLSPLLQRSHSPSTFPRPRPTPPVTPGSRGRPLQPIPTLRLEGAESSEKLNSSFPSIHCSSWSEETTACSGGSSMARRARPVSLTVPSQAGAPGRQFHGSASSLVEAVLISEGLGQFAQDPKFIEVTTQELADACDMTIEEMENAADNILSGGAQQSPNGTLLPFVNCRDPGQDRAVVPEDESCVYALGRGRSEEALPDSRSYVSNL
For assay [5], the target named is Beta-2 adrenergic receptor (Homo sapiens, UniProt P07550).
Sequence of Beta-2 adrenergic receptor (P07550 whole entry): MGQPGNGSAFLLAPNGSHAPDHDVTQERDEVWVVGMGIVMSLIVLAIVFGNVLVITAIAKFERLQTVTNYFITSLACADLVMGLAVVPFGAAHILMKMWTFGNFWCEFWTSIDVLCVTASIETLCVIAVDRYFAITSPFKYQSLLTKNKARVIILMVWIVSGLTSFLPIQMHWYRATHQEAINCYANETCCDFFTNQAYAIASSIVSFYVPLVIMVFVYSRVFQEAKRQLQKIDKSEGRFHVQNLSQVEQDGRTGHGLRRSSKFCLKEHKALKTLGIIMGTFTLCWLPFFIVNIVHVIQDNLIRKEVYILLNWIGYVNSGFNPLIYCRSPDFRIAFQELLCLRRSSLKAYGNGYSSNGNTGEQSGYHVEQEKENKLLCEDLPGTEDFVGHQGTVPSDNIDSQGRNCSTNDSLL
The target of assay [6] is Kappa-type opioid receptor (Homo sapiens, UniProt P41145).
Sequence of Kappa-type opioid receptor (P41145 whole entry): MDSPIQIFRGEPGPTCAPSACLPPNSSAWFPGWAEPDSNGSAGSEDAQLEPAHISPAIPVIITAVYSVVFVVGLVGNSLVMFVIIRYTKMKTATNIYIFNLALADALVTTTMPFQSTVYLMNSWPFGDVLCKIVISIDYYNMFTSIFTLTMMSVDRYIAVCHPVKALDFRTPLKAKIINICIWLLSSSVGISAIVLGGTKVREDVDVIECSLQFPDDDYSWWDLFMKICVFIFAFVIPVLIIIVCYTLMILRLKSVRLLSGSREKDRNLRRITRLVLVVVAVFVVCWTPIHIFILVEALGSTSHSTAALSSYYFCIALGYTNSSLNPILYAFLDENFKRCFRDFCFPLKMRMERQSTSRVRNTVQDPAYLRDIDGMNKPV
The target of another assay is Mu-type opioid receptor (Homo sapiens, UniProt P35372). In words: biochemical. It counts as functional.
Sequence of Mu-type opioid receptor (P35372 whole entry): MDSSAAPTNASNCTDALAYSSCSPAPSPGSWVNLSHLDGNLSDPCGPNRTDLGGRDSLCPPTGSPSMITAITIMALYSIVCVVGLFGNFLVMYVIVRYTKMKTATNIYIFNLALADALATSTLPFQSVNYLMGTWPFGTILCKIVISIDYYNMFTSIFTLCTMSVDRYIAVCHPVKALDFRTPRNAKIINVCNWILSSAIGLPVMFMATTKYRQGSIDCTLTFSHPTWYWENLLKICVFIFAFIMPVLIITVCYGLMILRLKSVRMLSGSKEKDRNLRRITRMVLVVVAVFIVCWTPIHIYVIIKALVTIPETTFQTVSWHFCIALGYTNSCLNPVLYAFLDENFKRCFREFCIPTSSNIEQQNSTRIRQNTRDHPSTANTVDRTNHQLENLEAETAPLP
In assay [7] the target is T4, Progesterone receptor (Homo sapiens, UniProt P06401).
T4 sequence (P06401 whole entry): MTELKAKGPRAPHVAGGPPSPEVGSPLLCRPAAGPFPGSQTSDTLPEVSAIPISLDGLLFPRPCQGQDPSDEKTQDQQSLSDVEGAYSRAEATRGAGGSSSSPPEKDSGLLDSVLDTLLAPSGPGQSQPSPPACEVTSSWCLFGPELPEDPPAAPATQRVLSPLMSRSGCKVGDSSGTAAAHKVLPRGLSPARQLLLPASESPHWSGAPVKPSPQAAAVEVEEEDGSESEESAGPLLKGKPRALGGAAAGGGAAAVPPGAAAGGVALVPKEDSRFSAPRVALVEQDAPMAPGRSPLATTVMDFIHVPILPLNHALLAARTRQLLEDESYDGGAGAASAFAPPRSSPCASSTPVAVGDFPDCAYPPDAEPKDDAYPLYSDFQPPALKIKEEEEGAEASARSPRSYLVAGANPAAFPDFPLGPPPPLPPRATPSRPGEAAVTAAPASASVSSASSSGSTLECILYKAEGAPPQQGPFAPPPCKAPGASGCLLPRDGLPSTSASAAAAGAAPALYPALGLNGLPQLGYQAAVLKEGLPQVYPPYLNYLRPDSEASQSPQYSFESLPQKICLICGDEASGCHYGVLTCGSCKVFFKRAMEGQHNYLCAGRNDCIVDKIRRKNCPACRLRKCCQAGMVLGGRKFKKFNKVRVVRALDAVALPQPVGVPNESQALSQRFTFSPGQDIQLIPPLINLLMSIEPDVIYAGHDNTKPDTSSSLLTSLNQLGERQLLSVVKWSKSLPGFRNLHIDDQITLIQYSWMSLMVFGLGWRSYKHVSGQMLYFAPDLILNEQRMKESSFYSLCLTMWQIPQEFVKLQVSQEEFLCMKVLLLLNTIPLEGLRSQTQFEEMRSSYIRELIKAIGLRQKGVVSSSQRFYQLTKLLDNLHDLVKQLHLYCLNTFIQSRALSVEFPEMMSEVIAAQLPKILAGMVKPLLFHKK
The assay is classed as functional.

Assay [8] concerns the target T4, Progesterone receptor. It counts as functional. The source holds these as a separate data set.
Note: assay procedure not described here.

Sequence of Sodium-dependent serotonin transporter (P31645 whole entry): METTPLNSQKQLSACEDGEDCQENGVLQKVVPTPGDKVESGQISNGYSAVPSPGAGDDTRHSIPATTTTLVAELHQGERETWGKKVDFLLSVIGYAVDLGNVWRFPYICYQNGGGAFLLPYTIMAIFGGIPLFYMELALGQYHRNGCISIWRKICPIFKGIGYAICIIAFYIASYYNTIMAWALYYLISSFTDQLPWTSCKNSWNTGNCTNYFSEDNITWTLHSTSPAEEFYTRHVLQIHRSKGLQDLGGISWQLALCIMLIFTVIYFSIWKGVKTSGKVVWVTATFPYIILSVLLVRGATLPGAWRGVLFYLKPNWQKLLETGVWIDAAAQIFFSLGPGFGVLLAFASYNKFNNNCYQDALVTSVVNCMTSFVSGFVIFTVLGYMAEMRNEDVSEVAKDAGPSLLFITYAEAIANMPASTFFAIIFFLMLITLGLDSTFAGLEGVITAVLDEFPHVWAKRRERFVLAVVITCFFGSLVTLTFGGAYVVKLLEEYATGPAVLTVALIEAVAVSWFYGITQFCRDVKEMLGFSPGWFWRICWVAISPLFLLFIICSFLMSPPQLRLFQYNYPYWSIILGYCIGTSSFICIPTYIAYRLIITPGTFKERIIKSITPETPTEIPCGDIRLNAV

In the case of `CCCC(C)(COC(N)=O)COC(=O)NC(C)C` (stereo not drawn) [CARISOPRODOL], the AC50 (usually the midpoint of the concentration-response curve, whichever way the signal moves) was over 10 µM in assay [1]; over 10 µM in assay [2]; over 10 µM in [3]; over 10 µM on D(3) dopamine receptor; over 30 µM at Endothelin-1 receptor; over 10 µM on Histamine H1 receptor. For the same compound, the AC50 in [4], in assay [5] and in assay [6] was over 10 µM in each case.

Take `C=CC1=C(C(=O)O)N2C(=O)[C@@H](NC(=O)/C(=N\OCC(=O)O)c3csc(N)n3)[C@H]2SC1` [CEFIXIME]: the AC50 (on Mu-type opioid receptor; in [1]; in assay [2]; at Endothelin-1 receptor; at Progesterone receptor [7]; on Histamine H1 receptor) was over 30 µM each time. At Progesterone receptor [8], this compound displayed an AC50 of over 30 µM.

For `N[C@H](Cc1cc(I)c(Oc2cc(I)c(O)c(I)c2)c(I)c1)C(=O)O` [DEXTROTHYROXINE], the AC50 in [1] is over 10 µM; in assay [2], over 30 µM; in assay [3], over 10 µM; on D(3) dopamine receptor, over 10 µM; on Endothelin-1 receptor it was over 30 µM; at Histamine H1 receptor, over 10 µM. Moreover, the AC50 in assay [4], in [5] and in assay [6] was over 10 µM in each case.

As for `C[C@@H]1C[C@H]2[C@@H]3C[C@H](F)C4=CC(=O)C=C[C@]4(C)[C@@]3(F)[C@@H](O)C[C@]2(C)[C@H]1C(=O)CO` [DIFLUCORTOLONE], the AC50 in assay [1] was over 30 µM; in assay [2] it was over 30 µM; on D(3) dopamine receptor, over 30 µM; at Progesterone receptor [7], 0.052 µM; at Histamine H1 receptor it was over 30 µM; at Progesterone receptor [8], over 0.03 µM.

As to `Clc1ccc2c(c1)C(c1ccccc1)=NCc1nncn1-2` [ESTAZOLAM], the AC50 in assay [1] is over 10 µM; in assay [2], over 30 µM; in [3], over 10 µM; on D(3) dopamine receptor it was over 30 µM; at Histamine H1 receptor it was over 10 µM; in assay [4], over 10 µM. Moreover, the AC50 in assay [5] was over 10 µM; in [6] it was 20.1 µM.

Turning to `Clc1ccc(C(Cn2ccnc2)OCc2ccc(Sc3ccccc3)cc2)c(Cl)c1` (stereo not drawn) [FENTICONAZOLE], the AC50 on Mu-type opioid receptor was over 30 µM; in assay [1], over 30 µM; in assay [3] it was 12 µM; at D(3) dopamine receptor, 30 µM; at Endothelin-1 receptor, over 30 µM; at Progesterone receptor [7] it was over 30 µM. Also, the AC50 on Histamine H1 receptor was over 30 µM; in assay [4] it was 12 µM; in assay [5], over 30 µM; in assay [6], 2.5 µM; at Progesterone receptor [8], 25 µM.

As for `CC1(C)C(/C=C/C=C/C=C/C=C2\N(CCCCS(=O)(=O)O)c3ccc4ccccc4c3C2(C)C)=[N+](CCCCS(=O)(=O)[O-])c2ccc3ccccc3c21` [INDOCYANINE GREEN ACID FORM], the AC50 in assay [1] is 9.2 µM; in assay [3], 6.9 µM; at D(3) dopamine receptor it was 8.7 µM; at Endothelin-1 receptor, over 30 µM; on Progesterone receptor [7], over 30 µM; at Histamine H1 receptor it was 8.3 µM. The figures for the AC50 (in assay [6]; on Progesterone receptor [8]) were 13 µM and 3.4 µM, respectively.

Turning to `CC#CCn1c(N2CCC[C@@H](N)C2)nc2c1c(=O)n(Cc1nc(C)c3ccccc3n1)c(=O)n2C` [LINAGLIPTIN], the AC50 in [1] was over 10 µM; in assay [2], over 30 µM; in assay [3] it was over 10 µM; at D(3) dopamine receptor it was over 30 µM; on Histamine H1 receptor, over 10 µM; in assay [4] it was over 10 µM. Further, the AC50 in assay [5] and in assay [6] was over 10 µM in each case.

Consider `CCOC(=O)Nc1ccc2c(c1)N(C(=O)CCN1CCOCC1)c1ccccc1S2` [MORICIZINE], for which the AC50 in assay [1] is 22 µM; in assay [2], over 30 µM; in assay [3], over 30 µM; on D(3) dopamine receptor it was over 30 µM; on Endothelin-1 receptor, over 30 µM; at Progesterone receptor [7] it was over 30 µM. Besides, the AC50 (at Histamine H1 receptor; in assay [6]; at Progesterone receptor [8]) was over 30 µM in each case.

Consider `O=C1CN=C(c2ccccc2)c2cc(Cl)ccc2N1` [NORDAZEPAM], for which the AC50 is over 10 µM in [1]; over 10 µM in assay [2]; over 10 µM in assay [3]; over 10 µM at D(3) dopamine receptor; over 30 µM at Endothelin-1 receptor; over 10 µM at Histamine H1 receptor. Besides, the results for the AC50 in assay [4], in assay [5] and in assay [6] were over 10 µM, over 10 µM and 9.97 µM, respectively.

Regarding `CC(CCc1ccccc1)NC(C)C(O)c1ccc(O)cc1` (stereo not drawn) [NYLIDRIN], the AC50 in [1] was over 10 µM; in assay [2], over 10 µM; in assay [3], 0.73 µM; on D(3) dopamine receptor it was 1.3 µM; on Endothelin-1 receptor, over 30 µM; at Histamine H1 receptor, over 10 µM. The AC50 in assay [4] was over 10 µM; in [5] it was 0.218 µM; in assay [6], 4.98 µM.

Consider `CN1c2ccccc2C(NCCCCCCC(=O)O)c2ccc(Cl)cc2S1(=O)=O` (stereo not drawn) [TIANEPTINE], for which the AC50 on Mu-type opioid receptor was 2.6 µM; in assay [1], over 30 µM; in [3], over 30 µM; on D(3) dopamine receptor, 20 µM; at Endothelin-1 receptor, over 30 µM; at Progesterone receptor [7] it was over 30 µM. Also, the AC50 (on Histamine H1 receptor; in [5]; in assay [6]; at Progesterone receptor [8]) was over 30 µM in each case.

As for `COc1cc2c(Nc3ccc(Br)cc3F)ncnc2cc1OCC1CCN(C)CC1` [VANDETANIB], the AC50 on Mu-type opioid receptor is over 30 µM; in [1] it was 11 µM; in [2], 3.4 µM; in [3] it was 0.682 µM; at D(3) dopamine receptor, 20 µM; on Endothelin-1 receptor, over 30 µM. Further, the concentration at half-maximal activity (AC50) at Progesterone receptor [7] is over 30 µM; in assay [6], over 30 µM; on Progesterone receptor [8], over 10 µM.

Turning to COLISTIN, the AC50 (at Mu-type opioid receptor; in assay [1]; in assay [3]; on D(3) dopamine receptor; on Histamine H1 receptor; in assay [6]) was over 30 µM throughout.
